34 molecules from US20130338106A1, “COMPOUNDS INHIBITING LEUCINE-RICH REPEAT KINASE ENZYME ACTIVITY” (priority 2011, published 2013) can be followed below.

pIC50: −log10 of the molar value.

T1 sequence (Q5S007 whole entry G2019S): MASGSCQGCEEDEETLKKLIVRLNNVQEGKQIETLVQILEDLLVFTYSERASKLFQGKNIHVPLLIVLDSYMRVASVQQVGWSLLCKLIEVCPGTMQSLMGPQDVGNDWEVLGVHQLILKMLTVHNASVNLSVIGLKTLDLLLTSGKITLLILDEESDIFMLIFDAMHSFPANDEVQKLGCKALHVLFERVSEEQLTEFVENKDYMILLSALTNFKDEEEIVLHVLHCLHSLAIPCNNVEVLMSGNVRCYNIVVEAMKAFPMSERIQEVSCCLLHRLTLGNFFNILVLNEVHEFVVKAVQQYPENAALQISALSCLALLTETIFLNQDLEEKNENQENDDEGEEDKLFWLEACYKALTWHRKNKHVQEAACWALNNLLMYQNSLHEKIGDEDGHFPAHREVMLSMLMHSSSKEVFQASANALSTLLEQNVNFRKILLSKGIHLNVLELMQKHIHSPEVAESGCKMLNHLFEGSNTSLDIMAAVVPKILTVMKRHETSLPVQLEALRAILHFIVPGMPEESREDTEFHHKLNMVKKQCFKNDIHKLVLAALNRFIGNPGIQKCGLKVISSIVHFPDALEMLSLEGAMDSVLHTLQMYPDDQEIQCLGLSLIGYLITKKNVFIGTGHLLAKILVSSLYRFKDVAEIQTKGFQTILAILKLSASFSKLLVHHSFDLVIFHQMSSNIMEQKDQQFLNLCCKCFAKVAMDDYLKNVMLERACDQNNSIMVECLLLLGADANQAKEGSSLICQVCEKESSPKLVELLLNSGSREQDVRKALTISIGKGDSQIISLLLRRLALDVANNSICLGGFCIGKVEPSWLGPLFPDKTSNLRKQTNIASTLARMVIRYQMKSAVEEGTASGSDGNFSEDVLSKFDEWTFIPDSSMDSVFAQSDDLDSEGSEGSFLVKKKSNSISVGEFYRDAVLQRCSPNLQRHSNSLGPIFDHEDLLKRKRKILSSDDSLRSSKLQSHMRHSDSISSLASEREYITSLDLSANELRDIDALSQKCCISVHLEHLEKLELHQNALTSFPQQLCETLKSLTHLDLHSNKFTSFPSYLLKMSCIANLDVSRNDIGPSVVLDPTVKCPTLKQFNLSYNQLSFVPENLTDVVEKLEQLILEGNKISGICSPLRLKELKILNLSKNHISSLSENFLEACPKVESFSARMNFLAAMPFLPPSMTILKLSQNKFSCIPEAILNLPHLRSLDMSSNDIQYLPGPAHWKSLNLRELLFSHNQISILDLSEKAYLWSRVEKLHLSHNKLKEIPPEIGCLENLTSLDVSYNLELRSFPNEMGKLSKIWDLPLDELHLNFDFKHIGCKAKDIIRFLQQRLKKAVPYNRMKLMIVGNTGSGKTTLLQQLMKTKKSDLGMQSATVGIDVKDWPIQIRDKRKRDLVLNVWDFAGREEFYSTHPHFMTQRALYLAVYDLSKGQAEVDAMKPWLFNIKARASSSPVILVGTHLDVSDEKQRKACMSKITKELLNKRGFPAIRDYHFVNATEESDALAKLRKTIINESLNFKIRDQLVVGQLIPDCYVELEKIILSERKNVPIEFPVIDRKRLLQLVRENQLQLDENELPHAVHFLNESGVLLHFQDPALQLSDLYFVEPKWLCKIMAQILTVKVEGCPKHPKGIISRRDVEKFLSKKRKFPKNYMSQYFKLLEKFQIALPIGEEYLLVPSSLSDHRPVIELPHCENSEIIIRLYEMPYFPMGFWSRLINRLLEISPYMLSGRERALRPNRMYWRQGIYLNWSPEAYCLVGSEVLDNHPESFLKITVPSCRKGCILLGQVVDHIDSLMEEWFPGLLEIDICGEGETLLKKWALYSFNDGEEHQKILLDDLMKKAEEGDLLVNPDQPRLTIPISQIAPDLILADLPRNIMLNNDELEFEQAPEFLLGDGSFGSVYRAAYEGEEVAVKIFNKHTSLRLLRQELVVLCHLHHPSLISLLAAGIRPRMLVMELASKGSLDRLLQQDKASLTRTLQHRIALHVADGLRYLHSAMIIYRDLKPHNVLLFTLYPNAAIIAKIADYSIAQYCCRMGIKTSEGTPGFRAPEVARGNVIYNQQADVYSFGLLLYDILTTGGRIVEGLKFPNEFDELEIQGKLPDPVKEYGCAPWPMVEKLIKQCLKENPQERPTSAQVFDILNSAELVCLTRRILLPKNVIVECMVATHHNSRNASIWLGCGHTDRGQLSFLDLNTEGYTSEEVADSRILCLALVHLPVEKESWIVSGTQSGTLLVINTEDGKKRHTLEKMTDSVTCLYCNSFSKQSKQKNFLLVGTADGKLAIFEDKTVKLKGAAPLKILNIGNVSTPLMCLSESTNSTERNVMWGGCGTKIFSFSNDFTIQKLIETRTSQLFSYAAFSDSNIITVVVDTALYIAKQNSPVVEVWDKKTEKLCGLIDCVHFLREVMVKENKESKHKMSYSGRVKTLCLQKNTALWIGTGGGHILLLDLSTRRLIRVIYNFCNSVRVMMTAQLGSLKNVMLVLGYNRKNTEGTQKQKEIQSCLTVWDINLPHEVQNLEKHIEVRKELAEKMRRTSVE

This assay has as its target T1, LRRK2 G2019S mutant kinase (Homo sapiens, UniProt Q5S007, G2019S).
T1 construct: GST; purchased Invitrogen PV4882
Kind of assay: LRRK2 G2019S LanthaScreen TR-FRET kinase assay. In kind it is biochemical. Particulars: LRRK2 G2019S GST-tagged protein, 100 μM ATP, LRRKtide substrate; read-out: IC50 (potency). As for the experimental part: Activity of compounds against LRRK2 G2019S mutant kinase function was tested in a LANTHAScreen® assay as follows: Compounds were diluted in 100% DMSO to the desired test concentrations in white, low-volume 384-well plates (PerkinElmer ProxiPlate® PN: 6008280). TR-FRET kinase reactions (10 μL) were performed with 75 nM Fluorescein-ERM (LRRKtide, Invitrogen, PN:PV4901) substrate in a final assay buffer containing 100 μM ATP and 2 mM DTT diluted in commercially available Kinase Buffer S (Invitrogen PN: PV5213). The final solvent concentration in the assay was 1% DMSO. Reactions were initiated with the addition of 10 ng/well of LRRK2 02019S, GST-tagged protein (Invitrogen PN: PV4882). After incubation of the foil sealed reaction plates at room temperature with low speed mixing for 1 hour, the kinase reaction was stopped and the amount of substrate phosphorylation was detected by addition of 10 μL of 10 mM EDTA and 2 nM Tb-anti-pERM (pLRRKtide antibody, Invitrogen, PN: PV4898) antibody in TR-FRET dilution buffer (Invitrogen PN: PV3574). After a 30 minute incubation at room temperature with low speed mixing, foil seals were removed and measurements were obtained on a PerkinElmer EnVision with excitation 340 nm, emission 520 nm (channel 1): 495 nm (channel 2) settings. Generation of raw data and workup of data to derive the IC50 (potency) and maximal inhibition at concentrations tested were performed using Merck's Assay Data Analyzer (ADA) software.
Turning to `CS(=O)(=O)c1sc(-c2cc[nH]n2)c2c1C(=O)CCC2` [Example 2, 3-(Methylsulfonyl)-1-(1H-pyrazol-3-yl)-6,7-dihydro-2-benzothiophen-4(5H)-one], the negative logarithm of the IC50 (pIC50) (usually the negative decadic logarithm of the IC50, by convention in mol/L) is 5.46.
Next, `O=C1CCCc2c(-c3cc[nH]n3)sc(SC3CCCC3)c21` [Example 3, 3-(Cyclopentylsulfanyl)-1-(1H-pyrazol-3-yl)-6,7-dihydro-2-benzothiophen-4(5H)-one]: 6.37.
Next, `O=C1CCCc2c(-c3cc[nH]n3)sc(NC3CCCC3)c21` [Example 4, 3-(Cyclopentylamino)-1-(1H-pyrazol-3-yl)-6,7-dihydro-2-benzothiophen-4(5H)-one]: 6.80; `CSc1sc(-c2cc[nH]n2)c2c1C(=O)CC(C)(C)C2` [Example 5, 6,6-Dimethyl-3-(methylsulfanyl)-1-(1H-pyrazol-3-yl)-6,7-dihydro-2-benzothiophen-4(5H)-one]: 6.64; `CC1(C)CC(=O)c2c(S(C)(=O)=O)sc(-c3cc[nH]n3)c2C1` [Example 6, 6,6-Dimethyl-3-(methylsulfonyl)-1-(1H-pyrazol-3-yl)-6,7-dihydro-2-benzothiophen-4(5H)-one]: 5.55.
Consider `CCSc1sc(-c2cc[nH]n2)c2c1C(=O)CC(C)(C)C2` [Example 8, 3-(Ethylsulfanyl)-6,6-dimethyl-1-(1H-pyrazol-3-yl)-6,7-dihydro-2-benzothiophen-4(5H)-one], for which the pIC50 was 6.74.
For `CC(C)Sc1sc(-c2cc[nH]n2)c2c1C(=O)CC(C)(C)C2` [Example 9, 6,6-Dimethyl-3-(propan-2-ylsulfanyl)-1-(1H-pyrazol-3-yl)-6,7-dihydro-2-benzothiophen-4(5H)-one], the negative-log IC50 (pIC50) was 6.85.
Next, `CC1(C)CC(=O)c2c(SCCO)sc(-c3cc[nH]n3)c2C1` [Example 10, 3-[(2-Hydroxyethyl)sulfanyl]-6,6-dimethyl-1-(1H-pyrazol-3-yl)-6,7-dihydro-2-benzothiophen-4(5H)-one]: 6.62; `CC1(C)CC(=O)c2c(SCCCO)sc(-c3cc[nH]n3)c2C1` [Example 11, 3-[(3-Hydroxypropyl)sulfanyl]-6,6-dimethyl-1-(1H-pyrazol-3-yl)-6,7-dihydro-2-benzothiophen-4(5H)-one]: 6.70.
To `COCCSc1sc(-c2cc[nH]n2)c2c1C(=O)CC(C)(C)C2` [Example 12, 3-[(2-Methoxyethyl)sulfanyl]-6,6-dimethyl-1-(1H-pyrrazol-3-yl)-6,7-dihydro-2-henzothiophen-4(5H)-one] belongs 6.54.
To `CN(C)CCSc1sc(-c2cc[nH]n2)c2c1C(=O)CC(C)(C)C2` [Example 13, 3-{[2-(Dimethylamino)ethyl]sulfanyl}-6,6-dimethyl-1-(1H-pyrazol-3-yl)-6,7-dihydro-2-benzothiophen-4(5H)-one] belongs 6.28; to `CC1(C)CC(=O)c2c(SCc3ccccc3)sc(-c3cc[nH]n3)c2C1` [Example 14, 3-(Benzylsulfanyl)-6,6-dimethyl-1-(1H-pyrazol-3-yl)-6,7-dihydro-2-benzothiophen-4(5H)-one], 6.07.
`CC1(C)CC(=O)c2c(SCc3ccco3)sc(-c3cc[nH]n3)c2C1` [Example 15, 3-[(Furan-2-ylmethyl)sulfanyl]-6,6-dimethyl-1-(1H-pyrazol-3-yl)-6,7-dihydro-2-benzothiophen-4(5H)-one]: the pIC50 is 6.35.
On to `CC(O)CSc1sc(-c2cc[nH]n2)c2c1C(=O)CC(C)(C)C2` (stereo not shown) [Example 16, 3-[(2-Hydroxypropyl)sulfanyl]-6,6-dimethyl-1-(1H-pyrazol-3-yl)-6,7-dihydro-2-benzothiophen-4(5H)-one], for which the negative-log IC50 (pIC50) was 6.66.
To `CC1(C)CC(=O)c2c(SCCc3ccccc3)sc(-c3cc[nH]n3)c2C1` [Example 17, 6,6-Dimethyl-3-[(2-phenylethyl)sulfanyl]-1-(1H-pyrazol-3-yl)-6,7-dihydro-2-benzothiophen-4(5H)-one] belongs 6.35; to `CCC(C)CSc1sc(-c2cc[nH]n2)c2c1C(=O)CC(C)(C)C2` (stereo not shown) [Example 18, 6,6-Dimethyl-3-[(2-methylbutyl)sulfanyl]-1-(1H-pyrazol-3-yl)-6,7-dihydro-2-benzothiophen-4(5H)-one], 6.66; to `CC1(C)CC(=O)c2c(SCCCCCCO)sc(-c3cc[nH]n3)c2C1` [Example 19, 3-[(6-Hydroxyhexyl)sulfanyl]-6,6-dimethyl-1-(1H-pyrazol-3-yl)-6,7-dihydro-2-benzothiophen-4(5H)-one], 7.22.
For the molecule `CC1(C)CC(=O)c2c(SCCCCCCN=[N+]=[N-])sc(-c3cc[nH]n3)c2C1` [Example 20, 3-[(6-Azidohexyl)sulfanyl]-6,6-dimethyl-1-(1H-pyrazol-3-yl)-6,7-dihydro-2-benzothiophen-4(5H)-one], the pIC50 was 6.31.
To `CC1(C)CC(=O)c2c(SCCCN=[N+]=[N-])sc(-c3cc[nH]n3)c2C1` [Example 21, 3-[(3-Azidopropyl)sulfanyl]-6,6-dimethyl-1-(1H-pyrazol-3-yl)-6,7-dihydro-2-benzothiophen-4(5H)-one] belongs 6.70.
To `CC1(C)CC(=O)c2c(SCC3CC3)sc(-c3cc[nH]n3)c2C1` [Example 22, 3-[(Cyclopropylmethyl)sulfanyl]-6,6-dimethyl-1-(1H-pyrazol-3-yl)-6,7-dihydro-2-benzothiophen-4(5H)-one] belongs 6.89.
Next, `CC(=O)NCCCCCCSc1sc(-c2cc[nH]n2)c2c1C(=O)CC(C)(C)C2` [Example 23, N-(6-{[5,5-Dimethyl-7-oxo-3-(1H-pyrazol-3-yl)-4,5,6,7-tetrahydro-2-benzothiophen-1-yl]sulfanyl}hexyl)acetamide]: 6.74; `CC1(C)CC(=O)c2c(SCCCCCCN)sc(-c3cc[nH]n3)c2C1` [Example 24, 3-[(6-Aminohexyl)sulfanyl]-6,6-dimethyl-1-(1H-pyrazol-3-yl)-6,7-dihydro-2-benzothiophen-4(5H)-one]: 7.15; `CC1(C)CC(=O)c2c(SCC(O)CO)sc(-c3cc[nH]n3)c2C1` (stereo not shown) [Example 25, 3-[(2,3-Dihydroxypropyl)sulfanyl]-6,6-dimethyl-1-(1H-pyrazol-3-yl)-6,7-dihydro-2-benzothiophen-4(5H)-one]: 6.13.
With `CC(C)CSc1sc(-c2cc[nH]n2)c2c1C(=O)CC(C)(C)C2` [Example 26, 6,6-Dimethyl-3-[(2-methylpropyl)sulfanyl]-1-(1H-pyrazol-3-yl)-6,7-dihydro-2-benzothiophen-4(5H)-one], the pIC50 was 6.92.
On to `CCCCSc1sc(-c2cc[nH]n2)c2c1C(=O)CC(C)(C)C2` [Example 27, 3-(Butylsulfanyl)-6,6-dimethyl-1-(1H-pyrazol-3-yl)-6,7-dihydro-2-benzothiophen-4(5H)-one], for which the pIC50 is 6.85.
To `CCCSc1sc(-c2cc[nH]n2)c2c1C(=O)CC(C)(C)C2` [Example 28, 6,6-Dimethyl-3-(propylsulfanyl)-1-(1H-pyrazol-3-yl)-6,7-dihydro-2-benzothiophen-4(5H)-one] belongs 6.80; to `CC1(C)CC(=O)c2c(SCC(F)(F)F)sc(-c3cc[nH]n3)c2C1` [Example 29, 6,6-Dimethyl-1-(1H-pyrazol-3-yl)-3-[(2,2,2-trifluoroethyl)sulfanyl]-6,7-dihydro-2-benzothiophen-4(5H)-one], 6.60; to `CCC(C)Sc1sc(-c2cc[nH]n2)c2c1C(=O)CC(C)(C)C2` (stereo not shown) [Example 30, 3-(Butan-2-ylsulfanyl)-6,6-dimethyl-1-(1H-pyrazol-3-yl)-6,7-dihydro-2-benzothiophen-4(5H)-one], 6.74.
Next, `CC1(C)CC(=O)c2c(SCC[Si](C)(C)C)sc(-c3cc[nH]n3)c2C1` [Example 31, 6,6-Dimethyl-1-(1H-pyrazol-3-yl)-3-{[2-(trimethylsilyl)ethyl]sulfanyl}-6,7-dihydro-2-benzothiophen-4(5H)-one]: 5.72; `Cc1nnc(Sc2sc(-c3cc[nH]n3)c3c2C(=O)CC(C)(C)C3)s1` [Example 32, 6,6-Dimethyl-3-[(5-methyl-1,3,4-thiadiazol-2-yl)sulfanyl]-1-(1H-pyrazol-3-yl)-6,7-dihydro-2-benzothiophen-4(5H)-one]: 5.40; `CC1(C)CC(=O)c2c(SCCCCl)sc(-c3cc[nH]n3)c2C1` [Example 33, 3-[(3-Chloropropyl)sulfanyl]-6,6-dimethyl-1-(1H-pyrazol-3-yl)-6,7-dihydro-2-benzothiophen-4(5H)-one]: 6.92.
Consider `CCCCCCSc1sc(-c2cc[nH]n2)c2c1C(=O)CC(C)(C)C2` [Example 34, 3-(Hexylsulfanyl)-6,6-dimethyl-1-(1H-pyrazol-3-yl)-6,7-dihydro-2-benzothiophen-4(5H)-one], for which the negative-log IC50 (pIC50) is 5.89.
Turning to `CCCNc1sc(-c2cc[nH]n2)c2c1C(=O)CC(C)(C)C2` [Example 35, 6,6-Dimethyl-3-(propylamino)-1-(1H-pyrazol-3-yl)-6,7-dihydro-2-benzothiophen-4(5H)-one], the negative logarithm of the IC50 (pIC50) is 6.82.
Turning to `CNc1sc(-c2cc[nH]n2)c2c1C(=O)CC(C)(C)C2` [Example 36, 6,6-Dimethyl-3-(methylamino)-1-(1H-pyrazol-3-yl)-6,7-dihydro-2-benzothiophen-4(5H)-one], the pIC50 was 6.12.
